In ChEMBL document CHEMBL1140624, “Improved biochemical strategies for targeted delivery of taxoids” (Bioorg Med Chem, 2007):
Values after ≈ are worked out from the molar mass of the structure shown. Active and inactive are the calls of the source. The rule behind the calls is not given here.

Legend:
[1] = Half life in DTT buffer assessed as taxol release; format: ADME
[2] = Half life in presence of 10 uM beta-glucuronidase assessed as taxol release at 100 uM; format: ADME
OVCAR-3 [3] = experiment: Cytotoxicity against human OVCAR-3 cells; format: functional, cell-based
OVCAR-3 [4] = experiment: Cytotoxicity against human OVCAR-3 cells in presence of beta-glucuronidase; format: functional, cell-based
MDA-MB-231 = experiment: Cytotoxicity against ERalpha negative human MDA-MB-231 cells; format: functional, cell-based
MCF7 [5] = experiment: Cytotoxicity against ERalpha positive human MCF7 cells; format: functional, cell-based
PC-3 = experiment: Cytotoxicity against ERbeta positive human PC3 cells; format: functional, cell-based
MCF7 [6] = experiment: Cytotoxicity against human MCF7 cells; format: functional, cell-based
EVSA-T = experiment: Cytotoxicity against human EVSA-T cells; format: functional, cell-based
[7] = Cytotoxicity against human H226 cells; format: functional, cell-based; conditions: NCI-H226
[8] = Cytotoxicity against human IGROV cells; format: functional, cell-based
WiDr = experiment: Cytotoxicity against human WIDR cells; format: functional, cell-based
A498 = experiment: Cytotoxicity against human A498 cells; format: functional, cell-based
[9] = tested on: M19 melanoma cell line (human); experiment: Cytotoxicity against human M19 melanoma cells
A2780 = experiment: Cytotoxicity against ERbeta negative human A2780 cells; format: functional, cell-based
LoVo [10] = experiment: Ratio of IC50 of drug for human LoVo cells to IC50 of taxol for human LoVo cells; format: functional
LoVo [11] = experiment: Cytotoxicity against human LoVo cells in presence of beta-glucuronidase; format: functional, cell-based
[12] = Half life in presence of 30 ug/mL beta-glucuronidase assessed as taxol release at 30 ug/mL; format: ADME
[13] = Aqueous solubility of the compound; format: physicochemical; conditions: aqueous solution

| SMILES | IC50 (MDA-MB-231) [nM] | IC50 (MCF7 [5]) [nM] | IC50 (PC-3) [nM] | IC50 (MCF7 [6]) [µg/mL] | IC50 (EVSA-T) [µg/mL] | IC50 [7] [µg/mL] | IC50 [8] [µg/mL] | IC50 (WiDr) [µg/mL] | IC50 (A498) [µg/mL] | IC50 [9] [µg/mL] | other results |
| --- | --- | --- | --- | --- | --- | --- | --- | --- | --- | --- | --- |
| CC(=O)O[C@H]1C(=O)[C@@]2(C)[C@H]([C@H](OC(=O)c3ccccc3)[C@]3(O)C[C@H](OC(=O)[C@H](OC(=O)C(C)(C)CCSSc4ccccn4)[C@@H](NC(=O)c4ccccc4)c4ccccc4)C(C)=C1C3(C)C)[C@]1(OC(C)=O)CO[C@@H]1C[C@@H]2O |  |  |  |  |  |  |  |  |  |  | t1/2 [1]: 4 min |
| CC(=O)O[C@H]1C(=O)[C@@]2(C)[C@H]([C@H](OC(=O)c3ccccc3)[C@]3(O)C[C@H](OC(=O)[C@H](OC(=O)CC(C)(C)CNC(=O)O[C@@H]4O[C@H](C(=O)[O-])[C@@H](O)[C@H](O)[C@H]4O)[C@@H](NC(=O)c4ccccc4)c4ccccc4)C(C)=C1C3(C)C)[C@]1(OC(C)=O)CO[C@@H]1C[C@@H]2O.[Na+] |  |  |  |  |  |  |  |  |  |  | t1/2 [2]: 120 min; IC50 (OVCAR-3 [3]): 20 nM; IC50 (OVCAR-3 [4]): 0.6 nM |
| CC(=O)O[C@H]1C(=O)[C@@]2(C)[C@H]([C@H](OC(=O)c3ccccc3)[C@]3(O)C[C@H](OC(=O)[C@H](OC(=O)N(C)CCN(C)C(=O)[C@H](CCCCN)NC(=O)[C@H](CC(C)C)NC(=O)[C@H](N)C(C)C)[C@@H](NC(=O)c4ccccc4)c4ccccc4)C(C)=C1C3(C)C)[C@]1(OC(C)=O)CO[C@@H]1C[C@@H]2O.Cl | 4.5 | 4.9 | 77 | 0.0069 | 0.0052 | 0.025 | 0.026 | 0.011 | 0.045 | 0.024 |  |
| CC(=O)O[C@H]1C(=O)[C@@]2(C)[C@H]([C@H](OC(=O)c3ccccc3)[C@]3(O)C[C@H](OC(=O)[C@H](OC(=O)CCc4ccc(NC(=O)O[C@@H]5O[C@H](C(=O)[O-])[C@@H](O)[C@H](O)[C@H]5O)cc4)[C@@H](NC(=O)c4ccccc4)c4ccccc4)C(C)=C1C3(C)C)[C@]1(OC(C)=O)CO[C@@H]1C[C@@H]2O.[Na+] |  |  |  |  |  |  |  |  |  |  | t1/2 [2]: 45 min; IC50 (OVCAR-3 [3]): 27 nM; IC50 (OVCAR-3 [4]): 1.1 nM |
| CC(=O)O[C@H]1C(=O)[C@@]2(C)[C@H]([C@H](OC(=O)c3ccccc3)[C@]3(O)C[C@H](OC(=O)[C@H](OC(=O)N(C)CCN(C)C(=O)[C@H](CCCCN)NC(=O)[C@H](Cc4ccccc4)NC(=O)[C@@H](C)N)[C@@H](NC(=O)c4ccccc4)c4ccccc4)C(C)=C1C3(C)C)[C@]1(OC(C)=O)CO[C@@H]1C[C@@H]2O.Cl | 4.5 | 4.9 | 77 | 0.0066 | 0.0072 | 0.021 | 0.011 | 0.01 | 0.038 | 0.017 |  |
| CC(=O)O[C@H]1C(=O)[C@@]2(C)[C@H]([C@H](OC(=O)c3ccccc3)[C@]3(O)C[C@H](OC(=O)[C@H](OC(=O)C(C)(C)CCSSCC(NC(=O)CCC(N)C(=O)O)C(=O)NCC(=O)O)[C@@H](NC(=O)c4ccccc4)c4ccccc4)C(C)=C1C3(C)C)[C@]1(OC(C)=O)CO[C@@H]1C[C@@H]2O (some centres not stated) |  |  |  |  |  |  |  |  |  |  | t1/2 [1]: 60 min |
| CC(=O)O[C@H]1C(=O)[C@@]2(C)[C@H]([C@H](OC(=O)c3ccccc3)[C@]3(O)C[C@H](OC(=O)[C@H](OC(=O)CCC(=O)O[C@@H]4C[C@]5(C)[C@@H](O)CC[C@H]5[C@@H]5CCc6cc(O)ccc6[C@H]54)[C@@H](NC(=O)c4ccccc4)c4ccccc4)C(C)=C1C3(C)C)[C@]1(OC(C)=O)CO[C@@H]1C[C@@H]2O | 51 | 62 | 40 |  |  |  |  |  |  |  | IC50 (A2780): 680 nM |
| CC(=O)O[C@H]1C(=O)[C@@]2(C)[C@H]([C@H](OC(=O)c3ccccc3)[C@]3(O)C[C@H](OC(=O)[C@H](OC(=O)N(C)c4cc([N+](=O)[O-])ccc4O[C@@H]4O[C@H](C(=O)O)[C@@H](O)[C@H](O)[C@H]4O)[C@@H](NC(=O)c4ccccc4)c4ccccc4)C(C)=C1C3(C)C)[C@]1(OC(C)=O)CO[C@@H]1C[C@@H]2O |  |  |  |  |  |  |  |  |  |  | Ratio IC50 (LoVo [10]): 722; IC50 (LoVo [11]): 100 nM |
| CC(=O)O[C@H]1C(=O)[C@@]2(C)[C@H]([C@H](OC(=O)c3ccccc3)[C@]3(O)C[C@H](OC(=O)[C@H](OC(=O)NCCNC(=O)[C@H](CCCCN)NC(=O)[C@H](Cc4ccccc4)NC(=O)[C@@H](C)N)[C@@H](NC(=O)c4ccccc4)c4ccccc4)C(C)=C1C3(C)C)[C@]1(OC(C)=O)CO[C@@H]1C[C@@H]2O.Cl | 4.5 | 4.9 | 77 | 0.016 | 0.011 | 0.041 | 0.019 | 0.013 | 0.04 | 0.045 |  |
| CC(=O)O[C@H]1C(=O)[C@@]2(C)[C@H]([C@H](OC(=O)c3ccccc3)[C@]3(O)C[C@H](OC(=O)[C@H](OC(=O)/C=C/C[C@@H]4C[C@H]5[C@@H]6CCc7cc(O)ccc7[C@H]6CC[C@]5(C)[C@H]4O)[C@@H](NC(=O)c4ccccc4)c4ccccc4)C(C)=C1C3(C)C)[C@]1(OC(C)=O)CO[C@@H]1C[C@@H]2O | 22 | 39 | 73 |  |  |  |  |  |  |  | IC50 (A2780): 180 nM |
| CC(=O)O[C@H]1C(=O)[C@@]2(C)[C@H]([C@H](OC(=O)c3ccccc3)[C@]3(O)C[C@H](OC(=O)C(OC(=O)N(C)CCN(C)C(=O)OCc4ccc(O[C@@H]5O[C@H](C(=O)O)[C@@H](O)[C@H](O)[C@H]5O)c(N)c4)[C@@H](NC(=O)c4ccccc4)c4ccccc4)C(C)=C1C3(C)C)[C@]1(OC(C)=O)CO[C@@H]1C[C@@H]2O (some centres not stated) |  |  |  |  |  |  |  |  |  |  | t1/2 [12]: 10 min; Ratio IC50 (LoVo [10]): 153; Activity (LoVo [11]): inactive |
| CC(=O)O[C@H]1C(=O)[C@@]2(C)[C@H]([C@H](OC(=O)c3ccccc3)[C@]3(O)C[C@H](OC(=O)[C@@H](OC(=O)/C=C/C[C@@H]4C[C@H]5[C@@H]6CCc7cc(O)ccc7[C@H]6CC[C@]5(C)[C@H]4O)[C@@H](NC(=O)c4ccccc4)c4ccccc4)C(C)=C1C3(C)C)[C@]1(OC(C)=O)CO[C@@H]1C[C@@H]2O | 2200 | 1600 | 120 |  |  |  |  |  |  |  | IC50 (A2780): 8300 nM |
| CC(=O)O[C@H]1C(=O)[C@@]2(C)[C@H]([C@H](OC(=O)c3ccccc3)[C@]3(O)C[C@H](OC(=O)[C@H](OC(=O)OC/C=C/c4ccc([N+](=O)[O-])cc4)[C@@H](NC(=O)c4ccccc4)c4ccccc4)C(C)=C1C3(C)C)[C@]1(OC(C)=O)CO[C@@H]1C[C@@H]2O |  |  |  | 0.186 (≈ 0.176 µM) | 0.221 (≈ 0.209 µM) | 0.187 (≈ 0.177 µM) | 0.62 (≈ 0.585 µM) | 0.308 (≈ 0.291 µM) | 0.187 (≈ 0.177 µM) | 0.384 (≈ 0.363 µM) |  |
| CC(=O)O[C@H]1C(=O)[C@@]2(C)[C@H]([C@H](OC(=O)c3ccccc3)[C@]3(O)C[C@H](OC(=O)[C@H](OC(=O)Cc4ccc(NC(=O)O[C@@H]5O[C@H](C(=O)O)[C@@H](O)[C@H](O)[C@H]5O)cc4)[C@@H](NC(=O)c4ccccc4)c4ccccc4)C(C)=C1C3(C)C)[C@]1(OC(C)=O)CO[C@@H]1C[C@@H]2O |  |  |  |  |  |  |  |  |  |  | IC50 (OVCAR-3 [3]): 0.23 nM; IC50 (OVCAR-3 [4]): 0.23 nM |
| CC(=O)O[C@H]1C(=O)[C@@]2(C)[C@H]([C@H](OC(=O)c3ccccc3)[C@]3(O)C[C@H](OC(=O)[C@H](OC(=O)N(C)CCNC(=O)[C@H](CCCCN)NC(=O)[C@H](Cc4ccccc4)NC(=O)[C@H](N)C(C)C)[C@@H](NC(=O)c4ccccc4)c4ccccc4)C(C)=C1C3(C)C)[C@]1(OC(C)=O)CO[C@@H]1C[C@@H]2O.Cl | 4.5 | 4.9 | 77 | > 0.063 | > 0.063 | 0.048 | 0.045 | 0.047 | > 0.063 | 0.047 |  |
| CC(=O)O[C@H]1C(=O)[C@@]2(C)[C@H]([C@H](OC(=O)c3ccccc3)[C@]3(O)C[C@H](OC(=O)[C@H](OC(=O)OCc4ccc(NC(=O)[C@H](CCCCN)NC(=O)[C@H](CC(C)C)NC(=O)[C@H](N)C(C)C)cc4)[C@@H](NC(=O)c4ccccc4)c4ccccc4)C(C)=C1C3(C)C)[C@]1(OC(C)=O)CO[C@@H]1C[C@@H]2O.Cl |  |  |  | 0.0092 | 0.0093 | 0.016 | 0.027 | 0.011 | > 0.06 | 0.02 |  |
| CC(=O)O[C@H]1C(=O)[C@@]2(C)[C@H]([C@H](OC(=O)c3ccccc3)[C@]3(O)C[C@H](OC(=O)[C@H](OC(=O)N(C)CCN(C)C(=O)OCc4ccc(O[C@@H]5O[C@H](C(=O)O)[C@@H](O)[C@H](O)[C@H]5O)c(N)c4)[C@@H](NC(=O)OC(C)(C)C)c4ccccc4)C(C)=C1C3(C)C)[C@]1(OC(C)=O)CO[C@@H]1C[C@@H]2O |  |  |  |  |  |  |  |  |  |  | t1/2 [12]: 10 min; Ratio IC50 (LoVo [10]): 187; Activity (LoVo [11]): inactive |
| CC(=O)O[C@H]1C(=O)[C@]2(C)[C@@H](OC(=O)C[C@H](O)C(=O)O)C[C@H]3OC[C@@]3(OC(C)=O)[C@H]2[C@H](OC(=O)c2ccccc2)[C@]2(O)C[C@H](OC(=O)[C@H](OC(=O)C[C@H](O)C(=O)O)[C@@H](NC(=O)c3ccccc3)c3ccccc3)C(C)=C1C2(C)C |  |  |  | 0.069 (≈ 0.0635 µM) | 0.059 (≈ 0.0543 µM) |  |  |  |  |  | solubility [13]: 500 µg/mL (≈ 460 µM) |
| Cn1c(=O)oc2ccc([N+](=O)[O-])cc21 |  |  |  |  |  |  |  |  |  |  | Ratio IC50 (LoVo [10]): 3000; Activity (LoVo [11]): inactive |
| CC(=O)O[C@H]1C(=O)[C@@]2(C)[C@H]([C@H](OC(=O)c3ccccc3)[C@]3(O)C[C@H](OC(=O)[C@H](OC(=O)C[C@H](O)C(=O)[O-])[C@@H](NC(=O)c4ccccc4)c4ccccc4)C(C)=C1C3(C)C)[C@]1(OC(C)=O)CO[C@@H]1C[C@@H]2O.[Na+] |  |  |  | < 0.003 | < 0.003 |  |  |  |  |  | solubility [13]: 600 µg/mL |
